Assay results published in US20260265267A1, “NOVEL COMPOUNDS WITH MTORC2-INHIBITORY ACTIVITY AND USES THEREOF” (Aliad Biopharma, priority 2023, published 2026).

Experiments:
[1] = test system: tau aggregates in the brain of 5×FAD mice; assay: Tau aggregate removal in the brain of 5×FAD mice (AT8 antibody staining); type: in vivo; details: 5 mg/kg, 14 days
Procedure: (§1) In order to evaluate the efficacy of HN2210, HN2213, and HN2313 on Alzheimer's disease-related symptoms, specifically regarding 1) memory and cognitive impairment, 2) amyloid plaques, 3) neurofibrillary tangles (NFTs), and 4) brain inflammation, an in vivo efficacy assessment of HN2210, HN2213 and HN2313 was conducted using 5×FAD Alzheimer's disease model mice. The 5×FAD mice were purchased from Jackson Lab, USA (Cat #034840-JAX) and crossed once with C57bl6 mice to produce F1 heterozygous offspring (Het). The compound was administered via intraperitoneal injection to 6-month-old 5×FAD Het mice, followed by behavioral testing. The normal control mice, which were littermates of the 5×FAD Het mice, were aged to 6 months and received DMSO injection at the same volume.
In order to assess the neurofibrillary tangle removal effect of HN2210, HN2213, and HN2313 compounds in the brains of Alzheimer's disease model mice, the following test was conducted using 5×FAD-DMSO mice without compound treatment, 5×FAD mice treated with HN2210, HN2213, or HN2313 compounds, and normal mice as controls.
Specifically, AT8 antibody stains hyperphosphorylated Tau protein that constitutes tau aggregates. Therefore, tau aggregates formed in the hippocampus of 5×FAD mouse can be measured using immunostaining with the AT8 antibody. Brain slices were triple-stained with the AT8 antibody, MAP2 which is a neuronal marker, and DAPI to label nuclei, and the dentate gyrus region of the hippocampus was observed under a confocal scanning microscope.

mTORC1 [2] = assay: mTORC1 inhibitory activity in primary cultured cerebral neurons (S6K Thr389 phosphorylation); type: cell-based, SD mice; details: for pThr389-S6K/S6K (% control): 24 hours
[3] = test system: 5×FAD Alzheimer's disease model mice; assay: Morris water maze test in 5×FAD mice (spatial perceptive ability); type: in vivo; details: for Morris water maze time spent swimming in the target quadrant, % of the normal control level / Morris water maze time spent swimming in the target quadrant, increase compared to 5×FAD-DMSO mice: 14 days (FIG. 8c); for Morris water maze time spent in the target quadrant, % of the normal control level / Morris water maze time spent in the target quadrant, increase compared to 5×FAD-DMSO mice: 14 days (FIG. 6b)
Procedure: as §1
Specifically, a 50 cm deep water tank filled with water (25.0±1.0° C.) was divided into four equal quadrants, and a platform (12 cm diameter) was placed 3 mm below the water surface in the center of one quadrant. The training test consisted of a 1-minute free swimming practice without the platform foothold on the first day and a four days of training, during which the animal used environmental cues to locate the hidden platform foothold, with four trials per day. The following day, the platform was removed, and the time the experimental animal spent in the target quadrant was measured (probe trial). Videos were recorded and analyzed using the Ethovision video tracking system (Noldus Information Technology, Wageningen, Netherlands). The data included the time spent swimming in the target quadrant and the number of crossings over the virtual platform's previous position.

mTORC1 [4] = target: T1, mTORC1 (Homo sapiens, UniProt P42345); assay: mTORC1 inhibitory activity in HeLa cells (p70S6K Thr389 phosphorylation, Western blot); type: cell-based; details: 9 hours; for remaining activity at 40 µM: read-out: pThr389-S6K/S6K (% control)
T1 construct: the following experiments were conducted in HeLa cells; endogenous in cells; host or cells: HeLa
How it was run: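 HeLa cells treated with compounds at 40 μM for 9 hours, lysed in RIPA, and equal protein analysed by Western blot. Phospho-p70S6K (Thr389) signal normalized to total p70S6K and expressed as percent of DMSO vehicle control.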

[5] = test system: activated microglia in the brain of 5×FAD mice; assay: Anti-inflammatory effect in the brain of 5×FAD mice (IBA-1 antibody staining); type: in vivo; details: 5 mg/kg, 14 days
Procedure: as §1
In order to assess the anti-inflammatory effect of HN2210, HN2213, and HN2313 compounds in the brains of Alzheimer's disease model mice, the following test was conducted using 5×FAD-DMSO mice without compound treatment, 5×FAD mice treated with HN2210, HN2213, or HN2313 compounds, and normal mice as controls. Specifically, brain inflammation is mediated by the activation of microglia, which can be stained using the IBA-1 antibody. Therefore, inflammation in the hippocampus of 5×FAD mouse can be assessed using immunostaining with the IBA-1 antibody. Brain slices were double-stained with the IBA-1 antibody and DAPI to label nuclei, and the dentate gyrus region of the hippocampus was observed under a confocal scanning microscope.

O=C1c2cc(F)c(N3CCOCC3)cc2COc2cc3c(cc21)OCO3 [HN2210, 8-(morpholino)-9-fluoro[2]benzoxepino[3,4-f]-1,3-benzodioxol-11(6H)-one]
reduction of AT8 antibody signals in the dentate gyrus compared to the 5×FAD-DMSO group [1]: 61% | effect on S6K Thr389 phosphorylation (mTORC1 [2]; 500 nM or 100 nM, time course to 24 hours (HN2304: from 6 to 24 hours)): reduced p70S6K Thr389 phosphorylation | pThr389-S6K/S6K (% control) (mTORC1 [2]; 500 nM): 23 % control | increase in S6K Thr389 phosphorylation at 3 hours (mTORC1 [2]; at 3 hours): 49% | decrease in S6K Thr389 phosphorylation at 24 hours (mTORC1 [2]; at 24 hours): 77% | Morris water maze number of target crossings, % of the normal control level ([3]; 0.2 mg/kg, 14 days (FIG. 8b)): approximately 30% | Morris water maze number of target crossings, increase compared to 5×FAD-DMSO mice ([3]; 0.2 mg/kg, 14 days (FIG. 8b)): 2.02 fold | Morris water maze time spent swimming in the target quadrant, % of the normal control level ([3]; 0.2 mg/kg): approximately 87% | Morris water maze time spent swimming in the target quadrant, increase compared to 5×FAD-DMSO mice ([3]; 0.2 mg/kg): 2.14 fold | Morris water maze number of target crossings, % of the normal control level ([3]; 1 mg/kg, 14 days (FIG. 8b)): ~63% | Morris water maze number of target crossings, increase compared to 5×FAD-DMSO mice ([3]; 1 mg/kg, 14 days (FIG. 8b)): 4.27 fold | Morris water maze time spent swimming in the target quadrant, % of the normal control level ([3]; 1 mg/kg): ~85% | Morris water maze time spent swimming in the target quadrant, increase compared to 5×FAD-DMSO mice ([3]; 1 mg/kg): 2.07 fold | Morris water maze number of target crossings, % of the normal control level ([3]; 5 mg/kg, 14 days (FIG. 6a)): approximately 59% | Morris water maze number of target crossings, increase compared to 5×FAD-DMSO mice ([3]; 5 mg/kg, 14 days (FIG. 6a)): 3.96 fold | Morris water maze time spent in the target quadrant, % of the normal control level ([3]; 5 mg/kg): approximately 96% | Morris water maze time spent in the target quadrant, increase compared to 5×FAD-DMSO mice ([3]; 5 mg/kg): 1.74 fold | Morris water maze number of target crossings, % of the normal control level ([3]; 5 mg/kg, 14 days (FIG. 8b)): ~86% | Morris water maze number of target crossings, increase compared to 5×FAD-DMSO mice ([3]; 5 mg/kg, 14 days (FIG. 8b)): 5.84 fold | Morris water maze time spent swimming in the target quadrant, % of the normal control level ([3]; 5 mg/kg): ~96% | Morris water maze time spent swimming in the target quadrant, increase compared to 5×FAD-DMSO mice ([3]; 5 mg/kg): 2.34 fold | effect on S6K Thr389 phosphorylation (mTORC1 [4]; 40 μM): no effect | remaining activity at 40 µM (mTORC1 [4]): 107% | reduction of IBA-1 antibody signals in the dentate gyrus compared to the 5×FAD-DMSO group [5]: 50%

O=C1c2cc(F)c(NCc3ccccc3)cc2COc2cc3c(cc21)OCO3 [HN2213, 8-(benzylamino)-9-fluoro[2]benzoxepino[3,4-f]-1,3-benzodioxol-11(6H)-one]
reduction of AT8 antibody signals in the dentate gyrus compared to the 5×FAD-DMSO group [1]: 59% | pThr389-S6K/S6K (% control) (mTORC1 [2]; 500 nM): 137 % control | increase in S6K Thr389 phosphorylation in a time-dependent manner (mTORC1 [2]; time course to 24 hours): 37% | Morris water maze number of target crossings, % of the normal control level ([3]; 5 mg/kg, 14 days (FIG. 6a)): ~60% | Morris water maze number of target crossings, increase compared to 5×FAD-DMSO mice ([3]; 5 mg/kg, 14 days (FIG. 6a)): 4 fold | Morris water maze time spent in the target quadrant, % of the normal control level ([3]; 5 mg/kg): ~105% | Morris water maze time spent in the target quadrant, increase compared to 5×FAD-DMSO mice ([3]; 5 mg/kg): 1.91 fold | increase in S6K Thr389 phosphorylation (mTORC1 [4]; 40 μM): 14% | remaining activity at 40 µM (mTORC1 [4]): 114% | reduction of IBA-1 antibody signals in the dentate gyrus compared to the 5×FAD-DMSO group [5]: 24%

O=C1c2cc(F)c(NC3CCCC3)cc2COc2cc3c(cc21)OCO3 [HN2313, 8-(cyclopentylamino)-9-fluoro-[1,3]dioxolo[4′,5′:4,5]benzo[1,2-b]benzo[e]oxepin-11(6H)-one]
reduction of AT8 antibody signals in the dentate gyrus compared to the 5×FAD-DMSO group [1]: 49% | pThr389-S6K/S6K (% control) (mTORC1 [2]; 100 nM): 141 % control | increase in S6K Thr389 phosphorylation from 1 to 6 hours (mTORC1 [2]; from 1 to 6 hours): 2~3 fold | Morris water maze number of target crossings, % of the normal control level ([3]; 5 mg/kg, 14 days (FIG. 6a)): ~82% | Morris water maze number of target crossings, increase compared to 5×FAD-DMSO mice ([3]; 5 mg/kg, 14 days (FIG. 6a)): 5.5 fold | Morris water maze time spent in the target quadrant, % of the normal control level ([3]; 5 mg/kg): ~84% | Morris water maze time spent in the target quadrant, increase compared to 5×FAD-DMSO mice ([3]; 5 mg/kg): 1.53 fold | remaining activity at 40 µM (mTORC1 [4]): 54% | reduction of IBA-1 antibody signals in the dentate gyrus compared to the 5×FAD-DMSO group [5]: 50%
